Laboratory results as given in patent publication US20060247271A1, “Sulphonyl hydroxamic acid derivatives as inhibitors of s-cd23” (priority 2003, published 2006).

Tests used:
MMP-13 = biological target: T1, MMP-13 (Homo sapiens, UniProt P45452); experiment: General MMP inhibition fluorescence quench assay, MMP-13; assay type: biochemical; conditions: room temperature
T1 construct: purchased Calbiochem
Method: (§1) General MMP Inhibition Assays:
(§2) Inhibition of matrix metalloprotease activity was determined using a fluorescence quench assay with appropriate substrate. For example, MMP activity was determined using MMP activated using trypsin, according to Lark et al, Connective Tissue Res. 25, 52 (1990). The MMP is incubated at room temperature in a microtitre plate in a total volume of 100 ul, containing 0.15 M Tris Cl, 15 mM CaCl2, 0.2 M NaCl, pH 7.6 (assay buffer); inhibitor at concentrations up to 100 uM, with no more than 2% DMSO final concentration, 10 uM substrate (such as SDP-3815-PI for MMP-1, Peptides International). The MMP concentration is <10 nM, and determined empirically with the appropriate substrate to give at least a 20-fold increase in fluorescence emission in 30 min. Fluorescent excitation wavelength was 355 nm, emission wavelength 400-460 nm, and data points are collected to generate slope (change in fluorescence with time). Percent inhibition for each concentration is calculated from the slope at time zero, and IC50 values from the concentration dependence. MMP-1, 2, 3, 7, 9, 13, 14 may all be assayed in the same manner, using commercially available substrates reported to be effective for each enzyme. Enzymes were obtained from Calbiochem and activated using the same trypsin method.

[1] = system: release of soluble CD23 (RPMI 8866 cell plasma membranes); experiment: RPMI 8866 cell membrane CD23 cleavage activity assay; assay type: biochemical, human; conditions: RPMI 8866 plasma membranes, 37° C., sCD23 by EIA; read-out: IC50, inhibition of production of sCD23
Method: Procedure 1: The ability of test compounds to inhibit the release of soluble CD23 was investigated by use of the following procedure.
RPMI 8866 Cell Membrane CD23 Cleavage Activity Assay:
Plasma membranes from RPMI 8866 cells, a human Epstein-Barr virus transformed B-cell line (Sarfati et al., Immunology 60 [1987] 539-547) expressing high levels of CD23 are purified using an aqueous extraction method. Cells resuspended in homogenization buffer (20 mM HEPES pH 7.4, 150 mM NaCl, 1.5 mM MgCl2, 1 mM DTT) are broken by N2 cavitation in a Parr bomb and the plasma membrane fraction mixed with other membranes is recovered by centrifugation at 10,000×g. […]
The fractionated membranes are incubated at 37° C. for times up to 4 hrs to produce fragments of CD23 which are separated from the membrane by filtration in 0.2 micron Durapore filter plates (Millipore) after quenching the assay with 5 uM Preparation 1 from WO 95/31457 ([4-(N-Hydroxyamino)-2-(R)-isobutyl-3-(S)-(2-thiophenethiomethyl)succinyl]-(S)-phenylalanine—methylamide sodium salt, prepared according to the procedure descibed in Example 11 of WO 90/05719). sCD23 released from the membrane is determined using the EIA kit from The Binding Site (Birmingham, UK) or a similar one utilising MHM6 anti-CD23 mAb [Rowe et al., Int. […]

[2] = biological target: T2, human recombinant collagenase (Homo sapiens, UniProt P03956); experiment: Collagenase inhibition assay; assay type: biochemical; conditions: 37° C., 18 h, acetylated 3H type 1 bovine collagen
T2 construct: made in house; host or cells: E. coli
T2 sequence (P03956 100-469): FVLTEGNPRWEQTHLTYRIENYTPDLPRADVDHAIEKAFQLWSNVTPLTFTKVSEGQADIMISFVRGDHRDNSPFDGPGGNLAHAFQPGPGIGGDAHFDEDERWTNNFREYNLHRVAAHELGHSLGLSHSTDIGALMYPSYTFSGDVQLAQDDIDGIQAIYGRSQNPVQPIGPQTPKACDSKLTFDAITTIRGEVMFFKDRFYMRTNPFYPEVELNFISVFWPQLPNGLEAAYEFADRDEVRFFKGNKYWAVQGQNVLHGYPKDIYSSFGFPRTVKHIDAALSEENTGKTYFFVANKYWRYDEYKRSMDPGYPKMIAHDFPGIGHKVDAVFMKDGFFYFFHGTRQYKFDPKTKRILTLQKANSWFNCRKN
Method: Procedure 2: The ability of test compounds to inhibit matrix metalloproteases was investigated using the following procedures.
Collagenase Inhibition Assay:
The potency of compounds to act as inhibitors of collagenase was determined by the method of Cawston and Barrett (Anal. Biochem. 99, 340-345, 1979), hereby incorporated by reference, whereby a 1 mM solution of the inhibitor being tested or dilutions thereof, was incubated at 37° C. for 18 h with collagen and human recombinant collagenase, from synovial fibroblasts cloned, expressed and purified from E. Coli, (buffered with 150 mM Tris, pH 7.6, containing 15 mM calcium chloride, 0.05% Brij 35, 200 mM sodium chloride and 0.02% sodium azide). The collagen was acetylated ^3H type 1 bovine collagen prepared by the method of Cawston and Murphy (methods in Enzymology 80, 711,1981) The samples were centrifuged to sediment undigested collagen and an aliquot of the radioactive supernatant removed for assay on a scintillation counter as a measure of hydrolysis. The collagenase activity in the presence of 1 mM inhibitor, or dilution thereof, was compared to activity in a control devoid of inhibitor and the results reported as that concentration effecting 50% of the collagenase (IC50).

MMP-3 = biological target: T3, MMP-3 (Homo sapiens, UniProt P08254); experiment: General MMP inhibition fluorescence quench assay, MMP-3; assay type: biochemical; conditions: room temperature
T3 construct: purchased Calbiochem
T3 sequence (P08254 100-477, species assumed): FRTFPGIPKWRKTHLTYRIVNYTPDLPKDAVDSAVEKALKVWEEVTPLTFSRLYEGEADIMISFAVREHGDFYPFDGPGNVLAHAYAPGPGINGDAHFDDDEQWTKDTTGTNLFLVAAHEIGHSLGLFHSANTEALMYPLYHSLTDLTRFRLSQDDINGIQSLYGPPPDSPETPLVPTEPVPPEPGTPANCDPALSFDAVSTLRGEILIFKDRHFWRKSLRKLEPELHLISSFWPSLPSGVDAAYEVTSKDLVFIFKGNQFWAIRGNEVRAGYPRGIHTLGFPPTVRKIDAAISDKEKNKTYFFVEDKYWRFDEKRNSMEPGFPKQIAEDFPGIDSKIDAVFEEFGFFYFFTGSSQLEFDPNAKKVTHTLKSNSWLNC
Method: as §1, §2

| Compound | IC50 (MMP-13) [µM] | IC50 [1] [µM] | IC50 [2] [µM] | IC50 (MMP-3) [µM] |
| --- | --- | --- | --- | --- |
| CCCO[C@@H](CS(=O)(=O)Cc1cnc2ccccc2c1)C(=O)NO [Example 2, (R)—N-Hydroxy-2-propoxy-3-(quinolin-3-ylmethanesulfonyl)-propionamide] | 7 | 0.11 |  |  |
| O=C(NO)C(CS(=O)(=O)Cc1cnc2ccccc2c1)c1ccccc1 (centres unmarked) [Example 1, N-Hydroxy-2-phenyl-3-(3-quinolylmethanesulfonyl)-propionamide] |  | 0.01 | > 10 | > 10 |
